From US20190367516A1 (Bayer Pharma Aktiengesellschaft, priority 2015, published 2019)
pEC50: −log10 of the molar value. Where two headings read alike, the source gives them in different places.

Target: T1, human M2 receptor (Homo sapiens, UniProt P08172)
T1 sequence (P08172 1-466): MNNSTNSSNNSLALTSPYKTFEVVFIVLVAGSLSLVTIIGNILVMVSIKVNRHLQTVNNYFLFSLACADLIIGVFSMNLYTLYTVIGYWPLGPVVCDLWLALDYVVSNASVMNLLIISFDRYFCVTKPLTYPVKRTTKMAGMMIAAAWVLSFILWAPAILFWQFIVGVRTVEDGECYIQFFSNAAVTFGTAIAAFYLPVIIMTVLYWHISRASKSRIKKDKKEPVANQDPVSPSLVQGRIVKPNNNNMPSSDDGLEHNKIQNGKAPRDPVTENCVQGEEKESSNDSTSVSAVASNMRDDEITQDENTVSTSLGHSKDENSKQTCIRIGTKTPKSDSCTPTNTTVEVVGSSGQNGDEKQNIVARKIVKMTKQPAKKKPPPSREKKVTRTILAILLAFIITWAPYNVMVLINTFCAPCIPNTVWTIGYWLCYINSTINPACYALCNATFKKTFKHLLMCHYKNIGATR

[1] = Receptor activity EC50, M2-GIRK1/4 activation test, acetylcholine at EC20, allosteric potency, in some cases mean values from two or more determinations
[2] = Receptor activity EC50, allosteric potency at EC20 acetylcholine, M2-GIRK1/4 reporter cells, in some cases mean of two or more determinations
[3] = read-out: Efficiency, boosting of the acetylcholine effect at EC20 acetylcholine concentration, M2-GIRK1/4 reporter cells

Row | SMILES | pEC50 [1] | pEC50 [2] | Emax [3] [%] | Emax (read-out: Efficiency) [%]
1 | Cc1cccc(C)c1NC(=O)c1cn(-c2ccc(F)cc2F)c2nc(N(C)C)ccc2c1=O [Example 54, 1-(2,4-Difluorophenyl)-7-(dimethylamino)-N-(2,6-dimethylphenyl)-4-oxo-1,4-dihydro-1,8-naphthyridine-3-carboxamide] | 7.07 | – | – | –
2 | CC(NC(=O)c1cn(-c2c(F)cc(F)cc2F)c2nc(N3C[C@@H](O)CC3=O)ccc2c1=O)C1CCC1 (mixture of isomers) [Example 471, N-[1-Cyclobutylethyl]-7-[(4S)-4-hydroxy-2-oxopyrrolidin-1-yl]-4-oxo-1-(2,4,6-trifluorophenyl)-1,4-dihydro-1,8-naphthyridine-3-carboxamide] | – | 8.00 | 89 | –
3 | O=C(NC12CC(C1)C2)c1cn(-c2c(F)cc(F)cc2F)c2nc(N3CC(O)C4(CC4)C3)ccc2c1=O (racemic) [Example 626, N-(Bicyclo[1.1.1]pent-1-yl)-7-[7-hydroxy-5-azaspiro[2.4]hept-5-yl]-4-oxo-1-(2,4,6-trifluorophenyl)-1,4-dihydro-1,8-naphthyridine-3-carboxamide] | – | 7.36 | 93.5 | –
4 | O=C(N[C@@H](C1CC1)C(F)(F)F)c1cn(-c2c(F)cc(F)cc2F)c2nc(N3CC4(CC4)NC3=O)ccc2c1=O [Example 450, N-[(1 S)-1-Cyclopropyl-2,2,2-trifluoroethyl]-4-oxo-7-(5-oxo-4,6-diazaspiro[2.4]hept-6-yl)-1-(2,4,6-trifluorophenyl)-1,4-dihydro-1,8-naphthyridine-3-carboxamide] | – | 7.72 | 78.5 | –
5 | O=C(N[C@@H](C1CC1)C(F)(F)F)c1cn(-c2c(F)cc(F)cc2F)c2nc(N3C[C@H](O)[C@@H](O)C3)ccc2c1=O [Example 642, N-[(1 S)-1-Cyclopropyl-2,2,2-trifluoroethyl]-7-[(3S,4S)-3,4-dihydroxypyrrolidin-1-yl]-4-oxo-1-(2,4,6-trifluorophenyl)-1,4-dihydro-1,8-naphthyridine-3-carboxamide] | – | 7.14 | – | 100
6 | O=C(Nc1c(Cl)cccc1Cl)c1cn(-c2c(F)cc(F)cc2F)c2nc(N3C[C@@H](O)[C@H](O)C3)ccc2c1=O [Example 585, N-(2,6-Dichlorophenyl)-7-[(3R,4R)-3,4-dihydroxypyrrolidin-1-yl]-4-oxo-1-(2,4,6-trifluorophenyl)-1,4-dihydro-1,8-naphthyridine-3-carboxamide] | – | 7.85 | 95.5 | –
7 | CN(CC(F)F)c1ccc2c(=O)c(C(=O)NC(C(F)(F)F)C(F)(F)F)cn(-c3ccc(F)cc3F)c2n1 [Example 115, 7-[(2,2-Difluoroethyl)(methyl)amino]-1-(2,4-difluorophenyl)-N-[1,1,1,3,3,3-hexafluoropropan-2-yl)-4-oxo-1,4-dihydro-1,8-naphthyridine-3-carboxamide] | 7.14 | – | – | –
8 | CC(NC(=O)c1cn(-c2c(F)cc(F)cc2F)c2nc(N3C[C@@H](O)[C@H](O)C3)ccc2c1=O)(C1CC1)C(F)(F)F (single isomer, unassigned) [Example 442] | – | 8.00 | 100 | –
9 | O=C(N[C@@H](C1CC1)C(F)(F)F)c1cn(-c2c(F)cc(F)cc2Cl)c2nc(N3C[C@@H](O)[C@H](O)C3)ccc2c1=O [Example 546, 1-(2-Chloro-4,6-difluorophenyl)-N-[(1 S)-1-cyclopropyl-2,2,2-trifluoroethyl]-7-[(3R,4R)-3,4-dihydroxypyrrolidin-1-yl]-4-oxo-1,4-dihydro-1,8-naphthyridine-3-carboxamide] | – | 8.00 | 100 | –

Second part, led by results:

Row | pEC50 [1] | pEC50 [2] | Emax [3] [%] | SMILES | Emax (read-out: Efficiency) [%]
10 | – | 7.14 | 89 | C[C@H](NC(=O)c1cn(-c2c(F)cc(F)cc2F)c2nc(N3C[C@@H](O)[C@H](O)C3)ccc2c1=O)C1CC1 [Example 477, N-[(1 S)-1-Cyclopropylethyl]-7-[(3R,4R)-3,4-dihydroxypyrrolidin-1-yl]-4-oxo-1-(2,4,6-trifluorophenyl)-1,4-dihydro-1,8-naphthyridine-3-carboxamide] | –
11 | – | 7.55 | 96.9 | O=C(N[C@@H](C1CC1)C(F)(F)F)c1cn(-c2c(F)cc(F)cc2F)c2nc(N3CC(O)C4(CC4)C3)ccc2c1=O (mixture of isomers) [Example 600, N-[(1S)-1-Cyclopropyl-2,2,2-trifluoroethyl]-7-[7-hydroxy-5-azaspiro[2.4]hept-5-yl]-4-oxo-1-(2,4,6-trifluorophenyl)-1,4-dihydro-1,8-naphthyridine-3-carboxamide] | –
12 | 6.71 | – | – | CC[C@@H](NC(=O)c1cn(-c2ccc(F)cc2F)c2nc(N3CCCCC3=O)ccc2c1=O)C(F)(F)F [Example 178] | –
13 | 7.17 | – | – | CN(C)c1ccc2c(=O)c(C(=O)NC(c3cccc(F)c3)C(F)(F)F)cn(-c3ccc(F)cc3F)c2n1 (racemic) [Example 140, rac-1-(2,4-Difluorophenyl)-7-(dimethylamino)-4-oxo-N-[2,2,2-trifluoro-1-(3-fluorophenyl)ethyl]-1,4-dihydro-1,8-naphthyridine-3-carboxamide] | –
14 | 7.24 | – | – | CCC(NC(=O)c1cn(-c2ccc(F)cc2F)c2nc(N3CCC(F)(F)C3)ccc2c1=O)C(F)(F)F (racemic) [Example 74, rac-1-(2,4-Difluorophenyl)-7-(3,3-difluoropyrrolidin-1-yl)-4-oxo-N-[1,1,1-trifluorobutan-2-yl]-1,4-dihydro-1,8-naphthyridine-3-carboxamide] | –
15 | 6.55 | – | – | CC[C@@H](NC(=O)c1cn(-c2c(F)cccc2F)c2nc(N3CC(CO)OC3=O)ccc2c1=O)C(F)(F)F (mixture of isomers) [Example 260, rac-1-(2,6-Difluorophenyl)-7-[5-(hydroxymethyl)-2-oxo-1,3-oxazolidin-3-yl]-4-oxo-N-[(2R)-1,1,1-trifluorobutan-2-yl]-1,4-dihydro-1,8-naphthyridine-3-carboxamide] | –
16 | – | 7.00 | 98 | O=C(N[C@@H](C1CC1)C(F)(F)F)c1cn(-c2c(F)cc(F)cc2F)c2nc(N(CCO)CCO)ccc2c1=O [Example 664, 7-[Bis(2-hydroxyethyl)amino]-N-[(1S)-1-cyclopropyl-2,2,2-trifluoroethyl]-4-oxo-1-(2,4,6-trifluorophenyl)-1,4-dihydro-1,8-naphthyridine-3-carboxamide] | –
17 | 6.81 | – | – | CC(C)(NC(=O)c1cn(-c2ccc(F)cc2F)c2nc(N3CCCS3(=O)=O)ccc2c1=O)c1c(F)cccc1F [compound 185] | –
18 | – | 7.60 | 98 | COC1(C)CN(c2ccc3c(=O)c(C(=O)N[C@H](C4CC4)C(F)(F)F)cn(-c4c(F)cc(F)cc4F)c3n2)C1 [Example 605, N-[(1R)-1-Cyclopropyl-2,2,2-trifluoroethyl]-7-(3-methoxy-3-methylazetidin-1-yl)-4-oxo-1-(2,4,6-trifluorophenyl)-1,4-dihydro-1,8-naphthyridine-3-carboxamide] | –
19 | 7.14 | – | – | C[C@H](NC(=O)c1cn(-c2c(F)cccc2F)c2nc(N3CC4CC4(O)C3)ccc2c1=O)C(F)(F)F (single isomer, unassigned) [Example 312] | –
20 | – | 6.98 | 98.5 | C[C@@H](NC(=O)c1cn(-c2c(F)cc(F)cc2F)c2nc(N3C[C@@H](O)[C@H](O)C3)ccc2c1=O)C1CC1 [Example 470, N-[(1R)-1-Cyclopropylethyl]-7-[(3R,4R)-3,4-dihydroxypyrrolidin-1-yl]-4-oxo-1-(2,4,6-trifluorophenyl)-1,4-dihydro-1,8-naphthyridine-3-carboxamide] | –
